The values that follow come from publication PMC8073907, “Peptide targeting of lysophosphatidylinositol-sensing GPR55 for osteoclastogenesis tuning” (Cell Communication and Signaling : CCS, 2021).

Experiment [1] concerns endogenous GPR55 in RAW264.7 cells. In words: Intracellular Ca2+ assay in siRNA-interfered RAW264.7 cells. Particulars: si-NT cells, 72 h of interference; 10 µM 16:0 LPI, within the first minute. It counts as cell-based, murine. How it is done: For transient interference of Gpr55, RAW264.7 cells were plated at 6 × 10^5 cells/well in six-well plates in growth medium without antibiotics. Twenty-four hours later, the cells were transfected with 250 pmol/well non-targeting small-interfering (si)RNAs (si-NT; siGENOME siRNA Pool #2; D-001206-14; Dharmacon, Chicago, IL, USA) or Gpr55-specific siRNAs (si-GPR55; siGENOME mouse GPR55 SMART pool; M-043590-01; Dharmacon) using Lipofectamine LTX and Plus Reagent, according to the manufacturer instructions. Twenty-four hours later, the cells were plated for the different assays or for RNA extraction. The efficiency of interference was monitored by real-time PCR after 72 h of interference, using the primers listed in the Additional file 1: Table S1. β2-microglobulin was followed as a housekeeping gene.
After 48 h of siRNA treatments, the RAW264.7 cells were detached with 600 μM EDTA in PBS, and plated at a density of 8 × 10^4 cells/well in 96-well plates. […] All the subsequent incubation steps were performed at 37 °C within the Fluoroskan Ascent FL (Thermo Fisher Scientific, Waltham, MA USA) and the fluorescence recorded with an Ex 485/ Em 520 every 3 s. The baseline fluorescence was monitored for 5 min, then 50 μL assay buffer (0.01% faf-BSA, 20 mM HEPES in HBSS^++) was added without or with 10 μM 16:0 LPI, and fluorescence was recorded for a further 5 min. […]

The subject of experiment [2] is osteoclasts derived from RAW264.7 cells. In words: Osteoclast functional assay (bone resorption on bovine cortical bone slices). It counts as cell-based, murine. As to conditions: 15 ng/mL RANKL, 7 days. As for the experimental part: RAW264.7 cells were plated in differentiation medium at a density of 1250 cells/100 µL on 0.2-mm-thick bovine cortical bone slices (BoneSlices.com, Jelling, Denmark) in 96-well plates. Six hours later, 100 µL differentiation medium with RANKL (15 ng/mL, final concentration) was added, in the presence of a carrier or in combination with the GPR55 modulators. The media with the different compounds were replaced every 48 h, for a total of 7 days. At the end of this period, the cells were detached with a 10% bleach solution, and the resorption excavations were visualised by using Toluidine Blue staining (Sigma-Aldrich). Images of the resorption areas were obtained under the microscope (SW380T; Swift Optical Instruments, Inc., TX, USA) using the 10 × objective, and acquired with a digital camera (Swiftcam SC1003; Swift Optical Instruments, Inc.). The total eroded surface underwent blinded quantification using ImageJ (NIH), and was subdivided into pit and trench surfaces. Pits were characterised as round excavations with well-defined edges where the ratio between length and width was < 2.0. Trenches were defined as elongated excavations with well-defined edges whose length was at least twice the wide, and with clear signs of continued resorption. The prevalence of trenches was calculated as a proportion (%) of the trench surface relative to the total eroded surface.

The subject of the next experiment is ssGPR55 wild-type. Briefly: GPR55-internalisation assay, wild-type (FACS). It counts as cell-based, human. Particulars: 10 µM soybean LPI. As for the experimental part: HeLa cells were plated at 1.5 × 10^5 cells/well in six-well plates in their growth medium without antibiotics. Twenty-four hours later, the cells were transfected with 2.5 µg/well pcDNA3.1, or the mutants ssGPR55-K80A, ssGPR55-Q87A, or 1.25 µg/well (complemented with 1.25 µg/well empty vector) ssGPR55, using Lipofectamine 2000, according to the manufacturer instructions. The different cDNA amounts were necessary to reach equivalent plasma-membrane expression of the receptors, as the mutants were expressed at lower levels, as verified by FACS analyses, and in line with previous reports. […]
For the GPR55-internalisation assay, after stimulation, the HeLa cells were washed twice with cold HBSS^++, stained while adhered with the monoclonal anti-HA antibody (1:1000) in PBS plus 3% BSA for 1 h on ice, washed three times with cold PBS, incubated with the Alexa488-tagged anti-mouse antibody (1:800) in PBS plus 3% BSA for 45 min on ice. […] The collected cells were centrifuged at 300×g, suspended in PBS plus 3% BSA, and analysed by FACS.

Take lysophosphatidylinositol [LPI]: the “mean increase of intracellular Ca2+ over basal levels” value in experiment [1] is given as ~ 40 nM. The “effect on relative trench contribution” value in experiment [2] (0.5 µM ML-191 or 1 µM 18:0 LPI) was “did not affect the relative contributions of the trenches”. In addition, the “increase of total resorbing activity induced by RANKL” value in experiment [2] (1 µM 18:0 LPI, versus RANKL + 0.004% faf-BSA) turned out to be 54%. For the same substance, in the experiment on ssGPR55 wild-type (overexpressed ssGPR55 in HeLa cells), the “time to plateau of LPI-induced internalisation” value worked out at 10 min. Moreover, the “reduction of cell-surface level of receptor” value in the experiment with ssGPR55 wild-type (ssGPR55 wild-type, HeLa, 15 min, three independent experiments) is given as 30%.
